# In a melting point compilation (Tetko et al.; mined from patent text by program, amines drawn as free bases though some values may be those of a salt):
row,Compound,melting point
1,Cc1ccc2cccc(OCc3c(Cl)ccc(S(=O)(=O)n4cccc4)c3Cl)c2n1,216 to 217 °C
2,O=c1cc(-c2ccccc2)oc2cccc(OCCO)c12,124 °C
3,CCCOc1ccc(OC)cc1-c1ncc(C(N)=O)c(=O)[nH]1,206 to 207 °C
4,CC(C(=O)O)c1ccc(-c2cn3ccccc3n2)cc1 (centres undefined),244 to 246 °C
5,CC(=O)CCc1nsc2ccc(-n3c(=O)cc(C(F)(F)F)n(C)c3=O)cc12,198 to 199 °C
6,COc1ccc2c(c1)C(=O)C1CCCCN1C2 (centres undefined),117 to 119 °C
7,CCN(C(=O)OCc1ccccc1)c1cc(Cl)c2c(c1)C(c1ccccc1F)=NC(C)(C)C(=O)N2C,150 to 151 °C
8,CC(Cc1ccc(F)c(F)c1)C(=O)O (centres undefined),55 to 56 °C
9,O=C1COc2ccc(C3=Cc4cccnc4SC3c3ccccc3)cc2N1 (centres undefined),242 to 244 °C
10,O=C(O)c1cnc2c3ccccc3ncn2c1=O,> 270 °C
11,CN(CC#N)[C@H](COCc1cc(C(F)(F)F)cc(C(F)(F)F)c1)c1ccccc1,110 to 111 °C
12,CCCn1ncc2c(=O)[nH]c(-c3ccccc3OCC)nc21,154 to 155 °C
13,Cc1ccc(C(=S)c2cccc3c2NC(=O)C3)cc1,167 to 169 °C
14,COC(=O)C1CN(C(C)=O)c2ccccc2CN1S(=O)(=O)c1ccc(OC)cc1 (centres undefined),150 to 155 °C
15,O=c1ccn(-c2cc3[nH]c(=O)c(=O)[nH]c3cc2[N+](=O)[O-])cc1F,> 300 °C
16,O=C(c1cccnc1)c1cc(-c2ccccc2)c(N2CCOCC2)s1,180 °C
17,COc1ccc(CNc2ccc(Cl)cc2C(=O)C(F)(F)F)cc1,82 to 84 °C
18,NC(=O)c1cn(C(CO)CCc2cccc(C(F)(F)F)c2)cn1 (centres undefined),103 to 106 °C
19,COc1ccc(Cn2c(=O)c3ccccc3n(CCCCN3CCC(OC(c4ccccc4)c4ccccc4)CC3)c2=O)cc1,99 to 100 °C
20,O=C(O)C1C2C=CC(C2)C1C(F)(F)F (centres undefined),85 to 90 °C
21,COC(=O)C1=C(C)NC(C)=C(C(=O)OCCCCCCCCBr)C1c1cccc([N+](=O)[O-])c1 (centres undefined),115 °C
22,Cc1ccc(-c2nc(C(F)(F)F)nn2-c2ccc(S(C)(=O)=O)cc2)cc1,176 to 178 °C
23,CCCc1nc2ccccc2c(C(=O)O)c1Oc1ccc(-c2ccccc2-c2nnn(C(c3ccccc3)(c3ccccc3)c3ccccc3)n2)cc1,167 to 170 °C
24,O=c1[nH]cnn1-c1ccc(C(F)(F)F)cc1,221 °C
25,Cc1nc2ccccc2n2c(-c3cc(OCC(O)c4ccccn4)ccc3Cl)nnc12 (centres undefined),193 to 194 °C

row,Compound,melting point
1,COC(=O)c1nc2cc(C)ccc2c(O)c1C(=O)OC,209 to 211 °C
2,CCOC(=O)C(C#N)C1(C#N)C(=O)N(Cc2ccc(C)cc2)c2c(C)cccc21 (centres undefined),128 to 130 °C
3,CCOC(=O)C(C(=O)Nc1ccc(C)cc1)(c1ccccc1)c1ccccc1,88 to 90 °C
4,CC(Cc1cc(I)c(Oc2ccc(O)cc2)c(I)c1)(NC=O)C(=O)O (centres undefined),221 to 223 °C
5,CN(C)c1nc(=O)n(-c2cc(OCc3ccccc3)c(Cl)cc2F)c(=O)n1C,193 to 194 °C
6,O=C(O)c1ccc(NCCOc2ccc(Cl)cc2Cl)cc1,203 to 205 °C
7,CC(C)OC(=O)Nc1ccc(O)c(Cl)c1,89 to 90 °C
8,CCOC(=O)c1nc(N)sc1C(=O)CC,134 to 135 °C
9,COC(=O)c1coc2c1C(=O)CCC2,100 to 102 °C
10,CCNC(=O)N1CCc2[nH]cnc2C1CCC1CCCCC1 (centres undefined),210 to 212 °C
11,CCCOCc1nc(C(C)(C)O)c(C(=O)OCCC)[nH]1,72 to 73 °C
12,COC(=O)C(=O)Nc1cc(OCCCOc2ccc(C(C)=O)c(O)c2CCC(F)(F)F)c(Br)cc1C,139 to 140 °C
13,CCCc1nc2c(N)nc3ccc(-c4ccc(NC(C)=O)cc4)cc3c2s1,251 to 254 °C
14,CCn1ncc2c(NCC3CC3)c3ccccc3nc21,228 to 230 °C
15,O=C(Nc1nc(-c2ccco2)c(C(=O)c2ccnc(N3CCOCC3)c2)s1)c1ccncc1,270 to 273 °C
16,Cc1cc(-c2ccc(C#N)cc2)cn2cc(-c3ccc(C#N)cc3)nc12,283 to 285 °C
17,CCOC(=O)c1cn(C2CC2)c2cc(Br)c(F)c(C)c2c1=O,195 to 197 °C
18,Cc1cnc(NC2CCC(CCN3CCN(c4ccccc4)CC3)CC2)nc1 (centres undefined),190 °C
19,COC(=O)c1ccc(-n2ccc(C)n2)cc1OC,167 to 169 °C
20,CCOC(=O)c1ccc(S(=O)(=O)C(Br)(Br)Br)cc1,134 to 136 °C
21,CC(=O)O[C@@](Cn1cncn1)(c1ccc(F)cc1F)[C@@H](C)S(=O)(=O)Cl,110 to 115 °C
22,c1ccc(-c2cc3n(n2)Cc2ccccc2-3)cc1,183 to 184 °C
23,CN=C(SC)N(C)Cc1cc(C)nc(C)c1,131 to 133 °C
24,Cc1cc2c3c(c1)c(=O)c(C(=O)O)cn3C1CCCCC21 (centres undefined),188 to 190 °C
25,CN(C)C=CC(=O)c1ccc(C(=O)N2Cc3cccn3Cc3ccccc32)cc1,203 to 205 °C

row,Compound,melting point
1,Cn1c(C(F)(F)F)ccc(-c2cc(CBr)c(Cl)cc2F)c1=O,117 to 118 °C
2,Cc1ccc(S(=O)(=O)OCC2Cc3cccc(C=Cc4ccccc4)c3O2)cc1 (centres undefined),120 to 122 °C
3,CCOC(=O)c1ccc(CN2CC[C@H](NC(=O)OC(C)(C)C)C2=O)c(C(F)(F)F)c1,93 to 95 °C
4,COc1ccc(-c2cncc(OC3SCC(O)C(O)C3O)c2)c(OC)c1 (centres undefined),184 °C
5,O=C(NC1CCCCC1)c1ccn2nc(-c3ccccc3)c(-c3cccc(Cl)c3)c2n1,160 to 161 °C
6,COc1ccc2cc([C@H](C)C(=O)OCCN3CCC(C)(SN=O)CC3)ccc2c1,131 °C
7,Cc1nc(N=CN(C)C)sc1C,47 to 58 °C
8,NC(CCOc1ccncc1)C(=O)c1ccccc1CO (centres undefined),108 to 109 °C
9,Cc1cnc(NC(=O)C(C)C)o1,109 to 110 °C
10,Cc1c(C(=O)c2ccc3ccccc3c2)cccc1[N+](=O)[O-],100 to 102 °C
11,COc1ccc(Sc2ccccc2/C=C/C(=O)NCCCCO)cc1,134 to 136 °C
12,CCCCCc1nc2c(Nc3ccc(Cl)c(Cl)c3)nc3ccccc3c2[nH]1,195 to 200 °C
13,O=C(C=Cc1ccc(O)c(O)c1)C=Cc1ccc(O)c(O)c1,221 to 223 °C
14,NS(=O)(=O)c1ccc(-c2oc(C(F)(F)F)nc2-c2ccccc2)cc1,137 to 138 °C
15,CCCC(CCC)n1c(CC)nc2c1C(=O)N(C)CN2c1ccc(Cl)cc1Cl,117 to 118 °C
16,CCCCCCCCCCCCCCCCCCOc1cc(OCCCOc2ccc(S(C)=O)cc2)cc(C(=O)O)c1 (centres undefined),77 to 80 °C
17,OC1(c2c[nH]c(-c3ccc(F)cc3)c2-c2ccncc2)CCNCC1,197 to 199 °C
18,O=C(CBr)Nc1ccccc1,131 to 135 °C
19,COc1ccc(-c2ccc3c(c2)C=C(C(=O)Nc2ccc(CN(C)C4CCC5(CC4)OCCO5)cc2)CCS3)cc1,198 to 201 °C
20,O=C(O)c1ccc(COc2ccccc2)nc1C(=O)O,270 °C
21,c1ncn(CCc2ccc3c(c2)-c2[nH]nc(-c4ccsc4)c2C3)n1,167 to 168 °C
22,CC1(C)OC(=C(C#N)C#N)C(C#N)=C1c1ccc(-n2cc(-c3ccccc3)nn2)cc1,280 °C
23,OC1CSC(Oc2cc(-c3ccccn3)ccc2Cl)C(O)C1O (centres undefined),108 °C
24,N#Cc1ccc(OCCCCOc2ccc(-c3cc4ccc(C#N)cc4o3)cc2)cc1,187 to 189 °C
25,CC(=O)c1c(-c2ccccc2)oc(-c2ccncc2)c1C,108 to 110 °C

row,Compound,melting point
1,O=C(NC(=O)N(SN1CCCCC1=O)c1ccc(Oc2ccc(C(F)(F)F)cc2Cl)cc1F)c1c(F)cccc1F,139 to 141 °C
2,C#Cc1cccc(Nc2ncnc3ccc(NC(=O)c4ccc(C(=O)Nc5ccccc5N)nc4)cc23)c1,213 to 216 °C
3,CC1(C)CC(=O)Nc2cc3nc(-c4ccc(S(=O)(=O)O)cc4)[nH]c3cc21,> 300 °C
4,Cc1nnc(-c2ccc3occ(-c4ccc(S(=O)Cc5ccccc5)cc4)c3c2)o1 (centres undefined),183 to 184 °C
5,CNC(=O)c1ccccc1Nc1nc(Nc2ccc3c(c2)CNC(=O)CCN3)ncc1Cl,267 to 268 °C
6,CCN(CC)S(=O)(=O)c1ccc2c(c1)C(C(Cl)(Cl)Cl)OC(C(Cl)(Cl)Cl)O2 (centres undefined),125 to 126 °C
7,CSCCC(=O)NCc1cccc(-c2nc(=O)c3ccccc3s2)n1,192 to 193 °C
8,CC(C)[C@H](NC(=O)Oc1ccccc1)C(=O)O,84.5 to 85.5 °C
9,N#Cc1ccc(N2C(=O)NC(CO)(CO)C2=O)cc1C(F)(F)F,207 to 208 °C
10,CCOc1ccc2c(c1)C(C)(c1cc(C(=O)ON3C(=O)CCC3=O)ccc1Cl)C(=O)N2S(=O)(=O)c1ccc(C(=O)NC(C)(C)C)cc1 (centres undefined),168 °C
11,c1ccc(C2CC(Cc3ccncc3)(Cc3ccncc3)c3ccccc32)cc1 (centres undefined),210 to 225 °C
12,CCCCCCCCCCCCCCCC(=O)OC[C@H]1OCC(=NO)[C@@H](O)[C@@H]1O,97 to 104 °C
13,O=C1CCC2=C1C(c1ccc(Cl)c(Cl)c1)C1=C(CCS1)N2 (centres undefined),> 260 °C
14,N#Cc1ccc(-c2cccc(OC3SCC(O)C(O)C3O)c2)cn1 (centres undefined),179 °C
15,O=C(O)[C@]12CCCC[C@H]1CCc1ccccc12 (relative stereo),142 to 144 °C
16,CCOC(=O)c1cccc(-c2ccc(Cl)c3cc(Cc4ccc(F)c(F)c4)sc23)c1,124 to 125 °C
17,Cc1cccc(NC(=O)NCC(=O)N(CC(=O)N2CCc3ccccc3C2)c2ccccc2)c1,135 °C
18,COC(=O)c1ccc2nc(C)ccc2c1,98 to 101 °C
19,COC(=O)Cc1cccc(CNC(=O)C2Cc3ccccc3N2S(=O)(=O)c2ccc(-c3cccc(C(F)(F)F)c3)cc2)c1 (centres undefined),60 °C
20,CC(=O)OC(CF)c1sccc1S(N)(=O)=O (centres undefined),97 to 98 °C
21,Nn1c(C(F)(F)F)cc(=O)n(-c2c(F)cc(Cl)c3c2ONC3c2ccccc2)c1=O (centres undefined),171 to 173 °C
22,NS(=O)(=O)c1ccc(N2N=C(C(F)(F)F)CC2c2ccccc2)cc1 (centres undefined),132 to 135 °C
23,CCN(CC)c1cc(C)nc(Oc2c(C)cc(C)cc2C)c1C,180 to 181 °C
24,CCCCCCCCCCN1C(=O)C=CC1=O,48 to 49 °C
